According to publication doi:10.1101/2023.02.27.530254, “Large library docking for cannabinoid-1 receptor agonists with reduced side effects” (bioRxiv, 2024):
pEC50, pKi: −log10 of the molar value. Where two headings read alike, the source gives them in different places.

Assays:
CB1 = biological target: T1, CB1 (Rattus norvegicus, UniProt P20272); test: Radioligand competition binding with [3H]-CP-55,940, rat brain membranes; conditions: for % [3H]-CP-55,940 displacement (mean) from single point screen: screens at 10 μM (white cells), 1 μM (orange) or 300 nM (green), cell colours not visible; for Emax / rCB1 binding Emax [SEM]: maximal radioligand displacement; for Emax: read-out: rCB1 binding Emax [SEM]; for pKi / rCB1 binding pKi [95% CI]: [3H]-CP-55,940 competition, rat brain membranes
T1 construct: membrane preparations from rat brain (source of CB1); tissue Bioivt RAT00BRAINMZN; host or cells: rat brain
T1 sequence (P20272 whole entry): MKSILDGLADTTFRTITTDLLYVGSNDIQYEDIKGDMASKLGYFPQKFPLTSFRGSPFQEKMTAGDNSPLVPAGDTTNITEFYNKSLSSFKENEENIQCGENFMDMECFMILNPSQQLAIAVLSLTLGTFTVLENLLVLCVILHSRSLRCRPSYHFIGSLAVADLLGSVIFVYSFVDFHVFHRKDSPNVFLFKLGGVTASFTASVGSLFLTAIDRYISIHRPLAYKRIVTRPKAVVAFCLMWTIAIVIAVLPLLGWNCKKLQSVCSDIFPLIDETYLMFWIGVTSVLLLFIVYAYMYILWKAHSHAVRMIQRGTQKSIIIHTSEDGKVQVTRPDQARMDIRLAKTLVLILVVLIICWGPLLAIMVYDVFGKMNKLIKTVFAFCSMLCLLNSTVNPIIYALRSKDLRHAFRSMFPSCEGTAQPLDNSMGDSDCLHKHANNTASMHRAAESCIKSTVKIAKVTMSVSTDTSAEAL
Method: The results were analyzed using nonlinear regression to determine the IC50 and Ki values for each ligand (Prism by GraphPad Software, Inc., San Diego, CA). The Ki values are expressed as the mean of two to three experiments each performed in triplicate.

hCB1 = hCB1 (Homo sapiens, UniProt P21554); test: bioSens-All ebBRET effector biosensor signaling profiling, HEK293; type: cell-based; parameters: host or cells: HEK293 (HEK293SL clone), transient
Sequence of hCB1 (P21554 whole entry, the tested form may be a part): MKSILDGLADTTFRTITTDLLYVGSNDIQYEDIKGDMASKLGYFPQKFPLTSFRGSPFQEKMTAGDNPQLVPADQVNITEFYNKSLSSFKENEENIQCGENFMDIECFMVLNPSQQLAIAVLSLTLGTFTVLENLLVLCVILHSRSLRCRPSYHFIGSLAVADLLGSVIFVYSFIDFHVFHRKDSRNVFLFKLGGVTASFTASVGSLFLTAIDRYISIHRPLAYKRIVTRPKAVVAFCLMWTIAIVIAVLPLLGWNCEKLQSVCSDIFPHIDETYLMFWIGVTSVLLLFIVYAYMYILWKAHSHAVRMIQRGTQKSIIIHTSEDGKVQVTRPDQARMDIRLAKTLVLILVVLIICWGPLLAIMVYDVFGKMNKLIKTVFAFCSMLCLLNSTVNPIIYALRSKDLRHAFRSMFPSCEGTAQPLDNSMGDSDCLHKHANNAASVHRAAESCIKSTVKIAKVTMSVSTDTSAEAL
Method: ebBRET-based effector membrane translocation biosensor assays were conducted at Domain Therapeutics NA Inc. (Montreal, QC, Canada) as previously described. […] HEK293 cells were maintained in Dulbecco’s Modified Eagle Medium (DMEM) (Wisent) supplemented with 1% penicillin- streptomycin (Wisent) and 10% (or 2 % for transfection) fetal bovine serum (Wisent) at 37°C with 5% CO2. All biosensor-coding plasmids and related information are the property of Domain Therapeutics NA Inc. The total amount of transfected DNA was adjusted and kept constant at 1 μg per mL of cell culture to be transfected using salmon sperm DNA (Invitrogen) as ‘carrier’ DNA, PEI (polyethylenimine 25 kDa linear, PolyScience) and DNA (3:1 ml PEI:mg DNA ratio) were first diluted separately in 150 mM NaCl then mixed and incubated for at least 20 minutes at room temperature to allow for the formation of DNA/PEI complexes. During the incubation, HEK293 cells were detached, counted, and re-suspended in maintenance medium to a 350,000 cells per mL density. At the end of the incubation period, the DNA/PEI mixture was added to the cells. Cells were finally distributed in 96-well plates (White Opaque 96-well /Microplates, Greiner) at a density of 35,000 cells per well. Forty-eight hours post-transfection, medium was aspirated and replaced with 100 μl of Hank’s Balanced Salt Solution buffer (HBSS) (Wisent) per well using 450-Select TS Biotek plate washer. After 60 min incubation in this medium, 10 μL of 10 μM e-Coelenterazine Prolume Purple (Methoxy e-CTZ) (Nanolight) was added to each well for a final concentration of 1 μM immediately followed by addition of increasing concentrations of the test compounds to each well using the HP D300 digital dispenser (Tecan). All compounds were assayed at 22 concentrations with each biosensor after a 10-minute room temperature incubation period. […] All BRET ratios were standardized using the universal BRET (uBRET) equation: uBRET=BRETratio-A/B-A×10,000 where A is the BRET ratio obtained from transfection of negative control and B is the BRET ratio obtained from transfection of positive control. […] The data were analyzed using the four-parameter logistic non-linear regression model in GraphPad Prism 9.1 and data were presented as means ± CIs of 1–4 independent experiments.
The SEM was calculated for the logEmax/EC50 ratios using the following equation: SEM=σ/n where σ is the standard deviation, and n is the number of experiments.

[1] = HEK293, read-out: hCB1 Gi1 Emax [95% CI]
[2] = HEK293, read-out: hCB1 GoB Emax [95% CI]
[3] = HEK293, read-out: hCB1 Gz Emax [95% CI]
[4] = hCB1 GoB EC50 [95% CI], GoB sensor
[5] = hCB1 Gi1 EC50 [95% CI], Gi1 sensor
[6] = read-out: rCB1 binding Ki [95% CI]

Structure (SMILES)	Emax (CB1) [%]	pKi (CB1; rCB1 binding Ki [95% CI])	Emax (hCB1; [1]) [%]	Emax (hCB1; [2]) [%]	other results
Cc1cc(C(=O)N2CC3(CCC3)[C@@H]3COC[C@@H]32)nn1-c1cccc(C(F)(F)F)c1 [10_14]	–	–	–	–	% [3H]-CP-55,940 displacement (mean) from single point screen (CB1): 91.30%
COC(=O)[C@@H]1[C@@H]2CCC[C@@H]2CN1C(=O)c1nn(-c2cccc(C(F)(F)F)c2)c2c1CCC2 [10_17]	–	–	–	–	% [3H]-CP-55,940 displacement (mean) from single point screen (CB1): 98.24%
CCCCCCC(C)(C)c1cc(O)c2c(c1)OC(C)(C)C1CCC(=O)CC21 (stereo not shown) [Nabilone, reference compound]	81	–	–	–	pKi (CB1; rCB1 binding pKi [95% CI]): 8.60
N#Cc1cccc(OCc2ccoc2C(=O)OCC2CSc3ccccc3O2)c1 (stereo not shown) [compound 5424]	104	6.06	–	–	% [3H]-CP-55,940 displacement (mean) from single point screen (CB1; listed as 7019_31): 80.66%
COC(=O)[C@H](c1cccs1)N(C)C(=O)c1cc(C)n(-c2cccc(C(F)(F)F)c2)n1 [‘1066]	97	5.76	–	–	–
Cc1cc(C(=O)NC(c2ccccc2)c2ccco2)nn1-c1cccc(C(F)(F)F)c1 (stereo not shown) [‘1081]	96	6.94	49	45	Emax (hCB1; [3]): 72%; pEC50 (hCB1; hCB1 Gi1 EC50 [95% CI]): 6.82; pEC50 (hCB1; [4]): 7.04; pEC50 (hCB1; hCB1 Gz EC50 [95% CI]): 6.65; pEC50 (hCB1; hCB1 Gz pEC50 [95% CI]): 6.70
Cc1cc(C(=O)N(C)C(c2ccccc2)c2ccco2)nn1-c1cccc(C(F)(F)F)c1 (stereo not shown) [‘1082]	94	6.07	–	–	–
Cc1cc(C(=O)NC(c2ccco2)c2ccco2)nn1-c1cccc(C(F)(F)F)c1 [‘1090]	99	7.04	81	90	Emax (hCB1; [3]): 115%; pEC50 (hCB1; [5]): 7.45; pEC50 (hCB1; hCB1 Gi1 pEC50 [95% CI], Gi1 sensor): 7.50; pEC50 (hCB1; [4]): 7.43; pEC50 (hCB1; hCB1 Gz EC50 [95% CI]): 6.90
Cn1nc(-c2nnc(C(C)(C)Oc3ccc(C(F)(F)F)cc3)o2)c2ccccc2c1=O [‘2153]	82.6	6.79	89	109	pEC50 (hCB1; hCB1 Gi1 EC50 [95% CI]): 6.00; pEC50 (hCB1; hCB1 GoB EC50 [95% CI]): 5.69
Cc1cc(C(=O)N2CC3(CCC3)[C@H]2[C@@H]2CCCO2)nn1-c1cccc(C(F)(F)F)c1 [‘3737a]	–	–	98	118	Emax (hCB1; [3]): 140%; pEC50 (hCB1; hCB1 Gi1 EC50 [95% CI]): 5.55; pEC50 (hCB1; hCB1 GoB EC50 [95% CI]): 5.17; pEC50 (hCB1; hCB1 Gz EC50 [95% CI]): 5.61; pEC50 (hCB1; hCB1 Gz pEC50 [95% CI]): 5.60
Cc1cc(C(=O)N2CC3(CCC3)[C@H]2[C@H]2CCCO2)nn1-c1cccc(C(F)(F)F)c1 [‘3737b]	–	–	89	152	Emax (hCB1; [3]): 231%; pEC50 (hCB1; hCB1 Gi1 EC50 [95% CI]): 5.52; pEC50 (hCB1; hCB1 GoB EC50 [95% CI]): 4.70; pEC50 (hCB1; hCB1 Gz EC50 [95% CI]): 4.51
CC(=O)C(C)(NC(=O)c1cc(C)n(-c2cccc(C(F)(F)F)c2)n1)c1cccs1 (stereo not shown) [‘4156]	91	7.87	–	–	–
Cc1cc(C(=O)N(C)C(c2ccco2)c2ccco2)nn1-c1cccc(C(F)(F)F)c1 [‘4388]	–	–	–	–	rCB1 binding pKi [95% CI] (CB1): 5.9 [5.7 – 6.0]; rCB1 binding Emax [SEM] (CB1): 113%; pKi (CB1; [6]): 5.87
Cc1cc(C(=O)NC(C)(c2ccco2)c2ccco2)nn1-c1cccc(C(F)(F)F)c1 [‘4936]	88	8.12	–	–	–
Cc1nn(Cc2ccc(Cl)cc2)c(C)c1C(=O)OCC1CSc2ccccc2O1 (stereo not shown) [‘5463]	88	6.08	31	32	pEC50 (hCB1; hCB1 Gi1 EC50 [95% CI]): 5.31; pEC50 (hCB1; hCB1 GoB EC50 [95% CI]): 5.13
Cc1cc(C(=O)NC(C)(c2ccccc2)c2ccco2)nn1-c1cccc(C(F)(F)F)c1 (stereo not shown) [‘5806]	100	8.10	–	–	–
COC(=O)[C@@H](c1cccs1)N(C)C(=O)c1cc(C)n(-c2cccc(C(F)(F)F)c2)n1 [‘6000]	96	5.84	–	–	–
COC(=O)C(c1ccco1)N(C)C(=O)c1cc(C)n(-c2cccc(C(F)(F)F)c2)n1 (stereo not shown) [‘6425]	108	6.03	–	–	–
COC(=O)[C@@H]1[C@@H]2CC[C@@H]2CN1C(=O)c1cc(C)n(-c2cccc(C(F)(F)F)c2)n1 [‘6448]	–	–	–	–	hCB1 Gi1 pEC50 [95% CI] (hCB1; Gi1 sensor): 6.5 [6.4 – 6.5]; hCB1 Gi1 Emax [95% CI] (hCB1; Gi1 sensor, normalized to CP-55,940): 87 [86 – 88]; hCB1 GoB pEC50 [95% CI] (hCB1; GoB sensor): 6.5 [6.4 – 6.6]; hCB1 GoB Emax [95% CI] (hCB1; GoB sensor, normalized to CP-55,940): 90 [87 – 91]; hCB1 Gz pEC50 [95% CI] (hCB1; Gz sensor): 6.1 [5.9 – 6.4]; hCB1 Gz Emax [95% CI] (hCB1; Gz sensor, normalized to CP-55,940): 151 [130 –172]; pEC50 (hCB1; read-out: hCB1 Gi1 EC50 [95% CI], Gi1 sensor): 6.46; pEC50 (hCB1; read-out: hCB1 GoB EC50 [95% CI], GoB sensor): 6.51; pEC50 (hCB1; read-out: hCB1 Gz EC50 [95% CI], Gz sensor): 6.14; rCB1 binding pKi [95% CI] (CB1): 6.1 [5.9 – 6.3]; rCB1 binding Emax [SEM] (CB1): 103%; pKi (CB1; [6]): 6.06
CC(=O)C(c1cccs1)N(C)C(=O)c1cc(C)n(-c2cccc(C(F)(F)F)c2)n1 (stereo not shown) [‘6829]	106	5.98	68	49	Emax (hCB1; [3]): 70%; pEC50 (hCB1; hCB1 Gi1 EC50 [95% CI]): 5.39; pEC50 (hCB1; hCB1 GoB EC50 [95% CI]): 6.00; pEC50 (hCB1; hCB1 Gz EC50 [95% CI]): 5.87
Cc1nc(CC2CC2)oc1-c1nc(Cc2cc3c(cc2Br)OCO3)no1 [‘7019]	–	5.39	–	–	–
Cc1c(C(=O)OCC2CSc3ccccc3O2)cnn1Cc1ccccc1 (stereo not shown) [‘7800]	–	6.00	34	21	pEC50 (hCB1; hCB1 Gi1 EC50 [95% CI]): 5.17; pEC50 (hCB1; hCB1 GoB EC50 [95% CI]): 6.22
COC(=O)C(NC(=O)c1cc(-c2ccccc2)n(-c2cccc(C(F)(F)F)c2)n1)c1cccs1 (stereo not shown) [‘8079]	104	7.73	–	–	–
Cc1cc(C(=O)NC(c2ccccc2)c2ccco2)nn1-c1cccc(C#N)c1 (stereo not shown) [‘12565]	97	6.52	28	25	Emax (hCB1; [3]): 51%; pEC50 (hCB1; [5]): 6.98; pEC50 (hCB1; [4]): 7.35; pEC50 (hCB1; hCB1 GoB pEC50 [95% CI], GoB sensor): 7.40; pEC50 (hCB1; hCB1 Gz EC50 [95% CI], Gz sensor): 7.26
COC(=O)C(NC(=O)c1cc(C)n(-c2cccc(C#N)c2)n1)c1ccsc1 (stereo not shown) [‘31604]	100	6.10	–	–	–
